Test system: HSV-1 induced IFNβ protein in mouse serum
Experiment: IFNβ protein in serum of HSV-1 infected mice (ELISA)
Format: in vivo
Conditions: wild mouse, compound by tail vein injection three times, HSV-1 by tail vein, serum collected in 6 hours, FIG. 3
Text: Influence of the compositae type cyclopeptide compound Astin C (3) prepared in example 1 on expression of IFNβ protein in HSV-1 induced mouse serum.
The experimental principle: Expression of the IFNβ protein in the body is a mark event of innate immunity resisting infection reaction, the expressed IFNβ can activate the signal transduction channel of the interferon receptor (IFNR) to induce expression of cell factors and inflammatory factors such as interferon stimulated genes, and finally, the invading pathogenic microorganisms are eliminated by recruiting NK cells or further activating molecular mechanisms such as adaptive immune response. Therefore, after the DNA virus HSV-1 infects a mouse, the activating condition of the innate anti-infection immune response of the body can be reflected by detecting the expression quantity of IFN-β of mouse serum, so that influence of the compound on the innate anti-infection immune reaction of the body is evaluated.
The experimental method: (1) Establishment of an HSV-1 infected mouse model: A 6-8 week old wild mouse was taken; 100 μL of HSV-1, the titer of which is 1×10^7, was injected into a mouse body by way of tail vein injection; and serum was collected in 6 hours for a follow-up experiment. […]

CCC1NC(=O)C2C(Cl)C(Cl)CN2C(=O)C(CC)NC(=O)CC(c2ccccc2)NC(=O)C(CO)NC1=O (stereo not shown) [Astin C] was tested, and the “HSV-1 induced IFNβ content in the mouse serum” value was “reduce the HSV-1 induced IFNβ content in the mouse serum obviously”.
